From patent US20200131473A1, “METHOD OF GENERATING 2 CELL-LIKE STEM CELLS” (IFOM FONDAZIONE ISTITUTO FIRC DI ONCOLOGIA MOLECOLARE, priority 2017, published 2020)
Entries after “also recorded” stand apart in the source; their conditions may differ.

Tests used:
[1] = test system: 2C-like genes (Zscan4, MuERV-L/MERVL, Dux) in ESCs (E14, R1); experiment: qPCR for 2C-like specific genes in ESCs; format: cell-based, mouse
Experimental: All treatments including APH, HU, UV, ATRi, ATMi and Chk1i were added in to fresh ESC medium and the cells were kept in 37° C. and 3% 02 tension for overnight (16-17 hrs) unless mentioned in each particular result section. APH was used at various concentrations ranging from 0.3 uM to 6 uM that is mentioned in each experiment in order to induce mild to acute replication stress response. Similarly, HU was used at 0.1 mM-3 mM. ATMi (KU-55933) and ATRi (VE 822) were used at the concentration of 10 uM and 1 uM respectively. Moreover, Chk1i (UCN-01) at the concentration of 100 nM was used. UV radiation was performed at the dosage ranging from 2 to 10 J/m2. For induction of ETAA1-AAD expression, Dox was used at the concentration of 1 μg/mL for 48 hrs.
RNA was extracted using RNeasy mini kit (QIAGEN), quantified by NanoDrop spectrophotometer and cDNA was prepared from 2 μg total DNA-depleted RNA using SuperScript™ III reverse transcriptase kit (Invitrogen cat #18080-093) following manufacturer's instructions. qPCR assay performed based on standard protocol using 10× SsoFast™ EvaGreen® Supermix or later 1× LightCycler 480 SYBR Green I Master (Roche, 04707516001), 0.5 μM primer mix and 5 ng of cDNA. GAPDH was used as internal control to normalise the qPCR data following ΔΔCt method, 10 μM primer mix and a total amount of cDNA corresponding to 5 ng of starting RNA for each reaction.

mESC lines E14 and R1 = experiment: Whole gene expression profiling (microarray) of mESC lines E14 and R1; format: cell-based, mouse
Experimental: The quality of total RNA was first assessed using an Agilent Bioanalyzer 2100 (Agilent Technologies, Palo Alto, Calif.). Biotin-labeled cDNA targets were synthesized starting from 150 ng of total RNA. Double stranded cDNA synthesis and related cRNA was performed with GeneChip® WT Plus Kit (Affymetrix, Santa Clara, Calif.). With the same kit was synthesized the sense strand cDNA before to be fragmented and labeled. […] Each eukaryotic GeneChip® probe array contains probe sets for several B. subtilis genes that are absent in the samples analyzed (lys, phe, thr, and dap). This Poly-A RNA Control Kit contains in vitro synthesized, polyadenylated transcripts for these B. subtilis genes that are pre-mixed at staggered concentrations to allow GeneChip® probe array users to assess the overall success of the assay.
Hybridization was performed using the GeneAtlas™ Hybridization, Wash and Stain Kit. […] Targets were diluted in hybridization buffer at a concentration of 0.05 μg/ul, denatured at 99° C. for 5 minutes, incubated at 45° C. for 5 minutes and centrifuged at 5,000 rpm for 1 minute. The Array Strip is then moved to a hybridization tray, which contains the hybridization cocktails. A single Gene 2.1 PEG Array Strip is hybridized with four different biotin-labeled targets. Hybridizations were performed for 20 hours at 48° C. in the GeneAtlas™ Hybridization Station. The Array Strips were washed and stained in the GeneAtlas™ Personal Fluidics Station. At the end of this procedure the array strips were placed into the imaging tray, which contains the Array Holding buffer.
The array strips were imaged using the GeneAtlas™ Imaging Station. Affymetrix GeneAtlas™ Command Console software was used to acquire the Array Strip images and […].
The CAMERA gene set enrichment p-values were calculated using the limma package and the camera function 30.
In the GSVA based enrichment analysis, we used the MsigDB gene sets, and transformed the individual gene expression values into gene set expression values with the GSVA package 32. We calculated the gene set differential expression as in the gene level differential expression analysis, only skipping the RMA normalization step.

E14 mouse ESCs = experiment: Drop-seq single cell transcriptional profiling of E14 ESCs; format: cell-based
Experimental: ESCs from CNTL, APH (6 μM) and APH-ATRi experimental conditions were resuspended in PBS-BSA and processed with a microfluidic device according to the DropSeq Laboratory Protocol V3.1 from McCarroll's Lab website [http://mccarrolllab.com/dropseq/l]. For each condition, 3 distinct aliquots of collected emulsion, each containing 4000 beads underwent reverse transcription (RT) and fragment library preparation using Illumina Nextera XT Library Prep Kit. A distinct barcode was used for each library to allow subsequent demultiplexing of sequencing reads. mRNA sequencing was performed using an Illumina HiSeq2000 instrument, library fragments were sequenced at 50 base pairs (bp) in PE mode. Sequencing reads were aligned to UCSC Mouse Reference Genome version mm10 using STAR (version 2.5.3a), and processed according to DropSeq Alignment Cookbook V1.2 to generate a digital expression matrix of STAMPs (cells) for each experimental condition, which was then furtherly analyzed in the RStudio environment (R version 3.3.3) using Seurat package V2.0 from Satija Lab [http://satijalab.org/seurat/]. Seven-hundred most expressed cells were selected in each condition; genes expressed in less than 3 cells and cells expressing less than 200 genes were pruned from the dataset. Data from CNTL and APH conditions (1399 cells) or CNTL, APH and APH-ATRi conditions (2096 cells) were merged to generate two datasets, which were log normalised and scaled. Expression mean and variance to mean ratio (Log VMR>0.5) were used to estimate data dispersion and select variable genes across the dataset. Respectively 2614 and 2768 genes (in the 2-conditions and 3-conditions datasets) were used in principal component analysis (PCA) to identify the appropriate number of components to include in data modeling. Top 15 components were selected to explain dataset complexity. A shared nearest neighbor (SNN) graph and smart local moving algorithm was used to perform cells clustering; t-SNE (t-stochastic neighbour embedding) analysis was used to reduce (PCA) dimensionality and generate plots of cells distribution.

SMILES	expression of key 2C-like genes in DUX KO ESCs ([1]; APH treatment)	main 2C-like genes, qPCR validation of profiling ([1]; APH treatment)	expression of 2C-like genes in ATR Seckel ESCs ([1]; APH treatment, unlike normal wild type ESC)	expression of Zscan4 and MuERV-L (QPCR and FACS) ([1]; ESC lines E14 and R1, time and dosage-dependent)	downregulated genes (mESC lines E14 and R1; APH treatment, E14 and R1) [genes]	upregulated genes with more than two-fold changes (mESC lines E14 and R1; APH treatment, E14 and R1) [genes]	DEGs overlapping with totipotency specific genes (mESC lines E14 and R1; APH treatment, 43 out of 201, compared with published datasets) [%]	two placenta-related gene categories (MSigDB gene-sets analysis) (mESC lines E14 and R1; APH vs CNTL)	small cell population (cluster 4, 2C-like) in single cell profiling (E14 mouse ESCs; E14 ESCs in LIF plus 2i, APH 6 μM)	APH induced 2C-like genes which reverted their expression level (mESC lines E14 and R1; 31 out of 43, inhibitor added after APH) [%]	two placenta-related gene categories upon ATR inhibition (mESC lines E14 and R1; APH plus inhibitor)	DNA repair signaling pathway (geneset enrichment analysis) (mESC lines E14 and R1; inhibitor added after APH-induced replication stress)	number of APH-induced 2C-like gene expressing cells (Zscan4d+, Gm8300+) (E14 mouse ESCs; APH plus ATRi)	number of RS-induced cells in the newly emerging cluster (E14 mouse ESCs; APH plus ATRi)
C[C@@]1(CO)[C@H](O)CC[C@@]2(C)[C@H]1CC[C@H]1C[C@@H]3C[C@@]12CC[C@]3(O)CO [APH, aphidicolin]	could not induce	significant upregulation	milder increase; also recorded: mild increase	significantly upregulated	21	193	17	strong and highly significant enrichment	significantly increased					
CNCc1ccc(-c2cc(-c3nc(-c4ccc(S(=O)(=O)C(C)C)cc4)cnc3N)on2)cc1 [VE 822]										72	robustly suppressed	robust silencing	marked reduction	significantly reduced
